# From patent publication US11576987B2, “Compositions and methods of treating melanoma” (UNIVERSITY OF IOWA RESEARCH FOUNDATION, priority 2016, dated 2023)
# Structures can show the parent of a compound that is named as a salt.
# Legend:
# MCR1 expression = experiment: Flow cytometry analysis of MCR1 expression in malignant melanoma cells; format: cell-based, human; settings: BRAF^V600E mutant melanoma cell lines (A2058, A375), 3 mmole 4-PBA, 4 h and 24 h
# Protocol: FIG. 1: Flowcytometry analysis of MCR1 expression in A375 malignant melanoma cells. A375 cells were treated with either 2 μmole Vemurafenib or 3 mmole 4-PBA for 4 h and 24 h (n=3). The treated and untreated (control) cells were stained with anti-MC1R-phycoerythrin (PE) monoclonal antibody conjugate. Fluorescence intensity was corrected by auto-fluorescence of cells without staining and data were expressed as relative (vs control) fluorescence intensity±SD. Statistical significance was determined by Student's T-test (*P<0.05; **P<0.01; ***P<0.001; ****P<0.0001).
# (§1) FIG. 2: Flowcytometry analysis of MCR1 expression in A2058 malignant melanoma cells. […] Fluorescence intensity was corrected by auto-fluorescence of cells without staining and data were expressed as relative (vs control) fluorescence intensity±SD. Statistical significance was determined by Student's T-test (*P<0.05; **P<0.01; ***P<0.001; ****P<0.0001).
# as §1, with “3:” for “2:”, “SK-Me13” for “A2058”, “****P<0.0001, N. S. non-significant).” for “****P<0.0001).”
# FIGS. 11A-11D. […] Fluorescence intensity was corrected by PE-conjugated isotype. […]
# MCR1 = molecular target: T1, MCR1 (Homo sapiens, UniProt Q01726); experiment: Radiobinding assay with [125I]-NDP-a-MSH after drug incubation; format: cell-based; settings: SK-MEL3 and A2058 BRAF^V600E, 4 hours incubation, relative to untreated controls
# T1 construct: endogenous in cells; host or cells: SK-MEL3 BRAF V600E and A2058 BRAF V600E human melanoma cells
# Protocol: FIGS. 11A-11D. MCR1 expression can be enhanced in human melanoma cells by incubation with PBA and FDA approved melanoma drugs. (A-B) Flow cytometry analysis of MC1R expression in human melanoma cells: (A) SK-MEL3 BRAF^V600E; (B) A2058 BRAF^V600E; incubated for 4 hours with clinically-relevant concentrations of BRAFi: PLX4032 (10 μM), GSK2118436 (2 μM); MEKi: GDC0973 (2 μM), GSK1120212 (2 μM); 4-PBA (4 mM). Cells were stained with anti-MC1R-phycoerythrin (PE) monoclonal antibody conjugate. Fluorescence intensity was corrected by PE-conjugated isotype. Data were expressed as normalized mean fluorescence intensity (NMFI; n=4±SD; *p<0.05). […] (C) SK-MEL3 BRAF^V600E; and (D) A2058 BRAF^V600E was confirmed by radiobinding assay using MCR1-specific peptide [^125I]-NDP-a-MSH following incubation for 4 hours with PBA and FDA approved drugs (as in FIG. 10). […] Binding expressed as radioactivity bound relative to untreated controls (same cells) (n=4±SD; *p<0.05).
# PCR measurements give information on the cellular response to drug treatments, but competitive binding assays convey a specific measure of changes in receptor expression (protein level) and changes in ligand-binding interactions as a result of drug treatments (FIGS. 11A-11B). After drug treatments, receptor expression is determined using synthetic α-MSH analog [^125I]-Nle^4-D-Phe^7-alpha-MSH ([^125I]-NDP-MSH) routinely as in FIG. 16D. […]
# metastatic melanoma = settings: cited from earlier work
compound,measurement,setting,value
"O=C(O)CCCc1ccccc1 [PBA, 4-phenylbutyric acid, sodium salt]",time dependency of MCR1 expression,MCR1 expression,significant (time dependent) increase in MCR1 expression
same,binding of MCR1-specific peptide [125I]-NDP-a-MSH,MCR1,increases binding of MCR1-specific peptides
same,tolerated dose in patients,metastatic melanoma,up to 27 g/day
